According to US9273043B2, “TRPV1 antagonists including dihydroxy substituent and uses thereof” (Purdue Pharma L.P., priority 2011, dated 2016):
Marks after values point to notes of the source that are not given here.

Tested on: MIA-induced osteoarthritis pain
Experiment: MIA-induced osteoarthritis model, weight bearing difference (WBD) test
Type: in vivo
Conditions: rat MIA
Excerpt: Osteoarthritis Pain: To assess the actions of a Compound of Formula (I) for the treatment or prevention of osteoarthritis pain, the rat monosodium iodo-acetate (MIA, i.e., sodium 2-iodoacetate) induced osteoarthritis model was used. Intra-articular injection of MIA causes joint degeneration characterized by osteolysis and swelling, with displacement of the patella, and reductions in bone mineral content and bone mineral density (Pomonis et al., “Development and pharmacological characterization of a rat model of osteoarthritis pain,” Pain 114: 339-346 (2005)). Under isoflurane anaesthesia, an intra-articular injection of 2 mg of MIA (Sigma-Aldrich) in 50 μl of saline was administered through the infrapatellar ligament of the knee joint of the right hind leg of the male, 6 week old Crl:CD(SD) rats. Control rats received an intra-articular injection of 50 μl of saline into the knee joint of the right hind leg. The left knee joint of all rats was untreated. […] Thus, in the assessment for osteoarthritis pain relief through gripping capability determinations, the 24 hour time point was the start of the next day when drug-in-vehicle was again orally administered (24 hours after the prior administration) for certain dosages. […] Weight Bearing Difference Test as an Assessment of Osteoarthritis Related Pain: The weight bearing difference test provides an accepted assessment of the efficacy of clinically useful analgesic drugs with respect of osteoarthritis related pain (see Pomonis et al. (2005)). WBD was assessed using a Linton Incapacitance Tester (Linton Instrumentation, Norfolk, UK). Rats were placed on the apparatus so that they were standing on their hind legs, and allowed to acclimate to the apparatus. When stationary, the weight born on each leg was measured over a 3s period. Three readings were taken for each rat at each time point; the average of the three readings was used for data analysis. WBD was expressed as “% WR”, i.e., the percentage of weight born on the MIA-injected right hind leg, using the following formula: [formula] where WR is the weight on the right hind leg and WL is the weight on the left (untreated) hind leg. […] The “% WRR”, i.e., the percentage reversal of the % WR impediment occurring post-MIA injection, was determined for each dosage at each time point using the following formula: [formula] where (% WR)Post-Drug is the % WR determined at each post-oral-administration time-point for each dose of each administered substance, (% WR)Pre-Drug is the % WR determined pre-oral-administration of each administered substance, and (% WR)Control Rat is the % WR determined for control rats (receiving the saline injection into the right hind leg knee joint). With the exception of the controls (i.e., celecoxib, vehicle) where the student's t-test was used, Dunnett's test was conducted for the % WRR.

## CC1CN(c2ncc(C(O)CO)cc2F)CCN1C(=O)Nc1nc2cc(F)ccc2s1.O=C(O)C=CC(=O)O (stereo not shown)
  minimal effective dose: 1 mg/kg
Oral 0.3 mg/kg, 1 h after administration
  % WRR [mean]: 4.3%
Oral 0.3 mg/kg, 3 h after administration
  % WRR [mean]: 12.5%
Oral 0.3 mg/kg, 5 h after administration
  % WRR [mean]: 7.1%
Oral 0.3 mg/kg, 7 h after administration
  % WRR [mean]: 5.0%
Oral 0.3 mg/kg, 24 h after administration
  % WRR [mean]: 0%
Oral 1 mg/kg, 1 h after administration
  % WRR [mean]: 15.2%
Oral 1 mg/kg, 3 h after administration
  % WRR [mean]: 28.8** %
Oral 1 mg/kg, 3 h after administration, listed as product prepared with Compound A155(a) and fumaric acid
  % WRR [mean]: 28.8%
Oral 1 mg/kg, 5 h after administration
  % WRR [mean]: 16.1** %
Oral 1 mg/kg, 5 h after administration, listed as product prepared with Compound A155(a) and fumaric acid
  % WRR [mean]: 16.1%
Oral 1 mg/kg, 7 h after administration
  % WRR [mean]: 8.8* %
Oral 1 mg/kg, 7 h after administration, listed as product prepared with Compound A155(a) and fumaric acid
  % WRR [mean]: 8.8%
Oral 1 mg/kg, 24 h after administration
  % WRR [mean]: 2.1%
Oral 3 mg/kg, 1 h after administration
  % WRR [mean]: 20.9** %
Oral 3 mg/kg, 3 h after administration
  % WRR [mean]: 34.5** %
Oral 3 mg/kg, 5 h after administration
  % WRR [mean]: 23.4** %
Oral 3 mg/kg, 7 h after administration
  % WRR [mean]: 9.5* %
Oral 3 mg/kg, 24 h after administration
  % WRR [mean]: 3.7%
Oral 10 mg/kg, 1 h after administration
  % WRR [mean]: 33.3** %
Oral 10 mg/kg, 3 h after administration
  % WRR [mean]: 44.1** %
Oral 10 mg/kg, 5 h after administration
  % WRR [mean]: 35.0** %
Oral 10 mg/kg, 7 h after administration
  % WRR [mean]: 22.8** %
Oral 10 mg/kg, 24 h after administration
  % WRR [mean]: 9.8%
Oral 20 mg/kg, 1 h after administration
  % WRR [mean]: 41.9** %
Oral 20 mg/kg, 1 h after administration, listed as product prepared with Compound A155(a) and fumaric acid
  % WRR [mean]: 41.9%
Oral 20 mg/kg, 3 h after administration
  % WRR [mean]: 56.9** %
Oral 20 mg/kg, 3 h after administration, listed as product prepared with Compound A155(a) and fumaric acid
  % WRR [mean]: 56.9%
Oral 20 mg/kg, 5 h after administration
  % WRR [mean]: 46.9** %
Oral 20 mg/kg, 5 h after administration, listed as product prepared with Compound A155(a) and fumaric acid
  % WRR [mean]: 46.9%
Oral 20 mg/kg, 7 h after administration
  % WRR [mean]: 35.6** %
Oral 20 mg/kg, 7 h after administration, listed as product prepared with Compound A155(a) and fumaric acid
  % WRR [mean]: 35.6%
Oral 20 mg/kg, 24 h after administration
  % WRR [mean]: 19.8** %
Oral 20 mg/kg, 24 h after administration, listed as product prepared with Compound A155(a) and fumaric acid
  % WRR [mean]: 19.8%
